Like-named read-outs stand apart in the source and are kept apart here.
Assays:
OAT1 [1] = target: T1, OAT1 (Homo sapiens, UniProt Q4U2R8); conditions: cited from earlier work
T1 construct: expressed in transfected cells; host or cells: MDCK II cells
T1 sequence (Q4U2R8 1-563): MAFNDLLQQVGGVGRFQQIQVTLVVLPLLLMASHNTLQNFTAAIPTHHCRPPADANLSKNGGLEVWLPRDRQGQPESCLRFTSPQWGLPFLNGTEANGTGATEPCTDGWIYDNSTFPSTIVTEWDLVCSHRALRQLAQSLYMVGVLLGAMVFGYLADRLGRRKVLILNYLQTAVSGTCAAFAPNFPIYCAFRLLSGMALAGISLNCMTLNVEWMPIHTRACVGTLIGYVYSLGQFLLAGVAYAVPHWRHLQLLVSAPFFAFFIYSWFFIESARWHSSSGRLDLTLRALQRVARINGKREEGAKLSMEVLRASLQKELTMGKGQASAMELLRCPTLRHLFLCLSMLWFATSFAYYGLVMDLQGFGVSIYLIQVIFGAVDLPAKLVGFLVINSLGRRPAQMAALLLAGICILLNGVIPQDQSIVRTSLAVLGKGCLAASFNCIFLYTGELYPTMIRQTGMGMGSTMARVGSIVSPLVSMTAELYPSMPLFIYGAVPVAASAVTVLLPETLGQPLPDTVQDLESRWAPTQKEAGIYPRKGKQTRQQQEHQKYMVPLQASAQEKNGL

OAT3 [2] = target: T2, OAT3 (Homo sapiens, UniProt Q8TCC7); conditions: cited from earlier work
T2 construct: expressed in transfected cells; host or cells: MDCK II cells
T2 sequence (Q8TCC7 1-542): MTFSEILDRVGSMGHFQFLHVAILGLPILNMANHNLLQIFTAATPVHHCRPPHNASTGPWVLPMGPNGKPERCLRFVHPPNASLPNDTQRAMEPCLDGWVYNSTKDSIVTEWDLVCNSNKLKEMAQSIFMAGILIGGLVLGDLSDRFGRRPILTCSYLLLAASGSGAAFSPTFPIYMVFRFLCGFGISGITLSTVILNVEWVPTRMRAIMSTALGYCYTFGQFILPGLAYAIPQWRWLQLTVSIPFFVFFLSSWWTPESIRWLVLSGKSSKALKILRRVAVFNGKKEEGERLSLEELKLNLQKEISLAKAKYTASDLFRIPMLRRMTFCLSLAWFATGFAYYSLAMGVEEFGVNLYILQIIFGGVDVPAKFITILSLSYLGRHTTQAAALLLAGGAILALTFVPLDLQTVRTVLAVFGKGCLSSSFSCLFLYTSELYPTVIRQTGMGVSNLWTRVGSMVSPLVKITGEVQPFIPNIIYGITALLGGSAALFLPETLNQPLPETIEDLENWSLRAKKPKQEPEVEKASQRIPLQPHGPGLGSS

[3] = target: T3, rat type 2 11β-hydroxysteroid dehydrogenase (11β-HSD2) (Rattus norvegicus, UniProt P50233); conditions: rat kidney microsome fraction; cited from earlier work
T3 construct: each compound were mixed with the rat kidney microsome fraction, and incubated at 37 °C for 30 min; from tissue; host or cells: rat kidney microsome fraction
T3 sequence (P50233 1-400): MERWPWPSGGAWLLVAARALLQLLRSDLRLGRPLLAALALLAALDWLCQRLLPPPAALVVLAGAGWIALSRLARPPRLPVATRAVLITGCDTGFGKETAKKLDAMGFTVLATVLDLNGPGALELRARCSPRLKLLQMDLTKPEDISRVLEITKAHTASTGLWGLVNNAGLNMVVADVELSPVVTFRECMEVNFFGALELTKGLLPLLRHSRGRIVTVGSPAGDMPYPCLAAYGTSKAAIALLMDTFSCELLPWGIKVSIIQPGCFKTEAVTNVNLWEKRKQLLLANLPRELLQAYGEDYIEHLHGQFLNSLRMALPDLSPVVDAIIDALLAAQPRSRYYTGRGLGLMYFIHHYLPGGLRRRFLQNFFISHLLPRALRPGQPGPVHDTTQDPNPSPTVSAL

[4] = target: T3, rat type 2 11β-hydroxysteroid dehydrogenase (11β-HSD2); test: Inhibition of 11β-HSD2 in rat kidney microsome fraction; format: biochemical; conditions: for IC50: 37 °C, 30 min
Method: Compounds 2 and 3 inhibited 11β-HSD2 in a rat kidney microsome fraction in a concentrations-dependent manner (Fig. 2).
Figure 2 Inhibitory effects of 2 and 3 on 11β-HSD2 using rat kidney microsome. [^3H] cortisone and each compound were mixed with the rat kidney microsome fraction, and incubated at 37 °C for 30 min. Then, the amount of [^3H] cortisol was measured. Data are expressed as mean ± S.E. (n = 4) of the percentage relative to the amount of [^3H] cortisol in the mixture without samples. **P < 0.01 and ***P < 0.001 compared with the groups without the samples by Dunnett’s multiple t-test for compounds 2 and 3, and by Student’s t-test for GA.
Assays were conducted as described by Diederich et al.[20] with slight modifications as described in our previous report.

OAT3 [5] = target: T2, OAT3; test: Uptake into MDCK II cells stably expressing OAT3; format: cell-based; conditions: pooled EHBR plasma, pH 5.5, 37 °C, 15 min
Method: (§1) Kidneys were collected from normal SD rats, and the kidney slices were incubated with the plasma samples of EHBRs at 37 °C or 4 °C for 2 h (A–C). MDCK II cells stably expressing OAT1 or OAT3 were incubated with the plasma samples of EHBRs at 37 °C for 15 min (D–F). […] Data are expressed as mean ± S.E. (n = 3 for (C, D), and (E); n = 6 for (A, B), and F). *P < 0.05 and **P < 0.01 vs 4 °C group by Student’s t-test for (A–C), and vs mock cells by Dunnett’s multiple t-test for (D–F).
(§2) Uptake studies using rat kidney slices and cells stably expressing OAT1 and OAT3 were conducted with the same protocol as in our previous study.

OAT1 [6] = target: T1, OAT1; test: Uptake into MDCK II cells stably expressing OAT1; format: cell-based; conditions: pooled EHBR plasma, pH 5.5, 37 °C, 15 min
Method: as §1, §2

SMILES | substrate of OAT1 (OAT1 [1]) | substrate of OAT3 (OAT3 [2]) | IC50 [3] [nM] | inhibitory titer on 11β-HSD2 compared with GA [4] | IC50 [4] [nM] | uptake into cells expressing OAT3 compared with mock cells (OAT3 [5]) | uptake into cells expressing OAT1 compared with mock cells (OAT1 [6])
CC1(C)[C@@H](O[C@@H]2O[C@H](C(=O)O)[C@@H](O)[C@H](O)[C@H]2O)CC[C@]2(C)[C@H]3C(=O)C=C4[C@@H]5C[C@@](C)(C(=O)O)CC[C@]5(C)CC[C@@]4(C)[C@]3(C)CC[C@@H]12 [3MGA, 3-monoglucuronyl glycyrrhetinic acid, reference compound] | substrate | substrate | 250 | – | – | – | –
CC1(C)[C@@H](OS(=O)(=O)O)CC[C@]2(C)[C@H]3C(=O)C=C4[C@@H]5C[C@@](C)(C(=O)O)C[C@H](O)[C@]5(C)CC[C@@]4(C)[C@]3(C)CC[C@@H]12 [compound 2, 22α-hydroxy-18β-glycyrrhetyl-3-O-sulfate] | – | – | – | slightly higher than that of GA | 110 | significantly higher | significantly higher
CC1(C)[C@@H](OS(=O)(=O)O)CC[C@]2(C)[C@H]3C(=O)C=C4[C@@H]5C[C@@](C)(C(=O)O)CC[C@]5(C)CC[C@@]4(C)[C@]3(C)CC[C@@H]12 [compound 3, 18β-glycyrrhetyl-3-O-sulfate] | – | – | – | slightly higher than that of GA | 100 | significantly higher | significantly higher
CC1(C)[C@@H](OS(=O)(=O)O)CC[C@]2(C)[C@H]3C(=O)C=C4[C@@H]5C[C@@](C)(C(=O)O[C@@H]6O[C@H](C(=O)O)[C@@H](O)[C@H](O)[C@H]6O)C[C@H](O)[C@]5(C)CC[C@@]4(C)[C@]3(C)CC[C@@H]12 [compound 1, 22α-hydroxy-18β-glycyrrhetyl-3-O-sulfate-30-glucuronide] | substrate | substrate | 2000 | – | – | – | –
